“Also recorded” adds a separate entry of the source. Read-outs that look alike come from different tables or passages of the source.
How the values were obtained:
[1] = target: wild type HilD (Salmonella typhimurium, UniProt P0CL08); type: cell-based; conditions: 20 μM, wild type HilD strain
[2] = target: HilD mutant K294A (Salmonella typhimurium, UniProt P0CL08, K294A); type: cell-based; conditions: 20 μM
[3] = target: HilD mutant K293A (Salmonella typhimurium, UniProt P0CL08, K293A); type: cell-based; conditions: 20 μM
[4] = target: HilC (Salmonella typhimurium, UniProt P0CL09); type: binding
[5] = system: hilA; type: cell-based, Salmonella Typhimurium
[6] = target: T1, HilD (Salmonella typhimurium, UniProt P0CL08); type: binding
[7] = system: hilA; type: cell-based, Salmonella; conditions: absence of lon, 20 μM
[8] = target: T1, HilD; type: cell-based; conditions: lon mutant
[9] = system: RtsA; type: binding, Salmonella
[10] = system: Salmonella SPI1 expression (sicA-GFP); type: in vivo, mice

Sequence of HilD mutant K293A (P0CL08 whole entry K293A, looked up): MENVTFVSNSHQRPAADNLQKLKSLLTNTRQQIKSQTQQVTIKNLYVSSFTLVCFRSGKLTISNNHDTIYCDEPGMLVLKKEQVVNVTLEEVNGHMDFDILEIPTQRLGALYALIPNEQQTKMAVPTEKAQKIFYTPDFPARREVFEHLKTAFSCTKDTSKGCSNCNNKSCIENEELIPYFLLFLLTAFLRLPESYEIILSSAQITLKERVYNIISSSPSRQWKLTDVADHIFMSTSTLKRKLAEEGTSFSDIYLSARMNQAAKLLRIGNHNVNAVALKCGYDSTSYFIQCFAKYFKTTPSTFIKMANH
Sequence of wild type HilD (P0CL08 whole entry): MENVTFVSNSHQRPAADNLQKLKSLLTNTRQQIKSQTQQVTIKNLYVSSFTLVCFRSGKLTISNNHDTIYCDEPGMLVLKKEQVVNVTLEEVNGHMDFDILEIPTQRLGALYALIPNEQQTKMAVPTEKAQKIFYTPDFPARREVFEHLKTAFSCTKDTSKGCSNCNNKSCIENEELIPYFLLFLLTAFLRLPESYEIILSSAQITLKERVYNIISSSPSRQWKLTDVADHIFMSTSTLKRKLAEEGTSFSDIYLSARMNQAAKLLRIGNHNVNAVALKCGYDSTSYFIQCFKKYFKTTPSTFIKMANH
T1 sequence (P0CL08 whole entry): as above
Sequence of HilC (P0CL09 whole entry): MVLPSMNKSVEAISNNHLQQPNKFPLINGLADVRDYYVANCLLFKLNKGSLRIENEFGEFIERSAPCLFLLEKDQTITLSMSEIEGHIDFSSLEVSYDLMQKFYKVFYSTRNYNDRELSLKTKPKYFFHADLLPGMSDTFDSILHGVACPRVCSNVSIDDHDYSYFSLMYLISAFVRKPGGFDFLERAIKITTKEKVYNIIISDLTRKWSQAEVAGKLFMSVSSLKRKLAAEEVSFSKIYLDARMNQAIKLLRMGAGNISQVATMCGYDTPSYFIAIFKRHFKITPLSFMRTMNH
Sequence of HilD mutant K294A (P0CL08 whole entry K294A, looked up): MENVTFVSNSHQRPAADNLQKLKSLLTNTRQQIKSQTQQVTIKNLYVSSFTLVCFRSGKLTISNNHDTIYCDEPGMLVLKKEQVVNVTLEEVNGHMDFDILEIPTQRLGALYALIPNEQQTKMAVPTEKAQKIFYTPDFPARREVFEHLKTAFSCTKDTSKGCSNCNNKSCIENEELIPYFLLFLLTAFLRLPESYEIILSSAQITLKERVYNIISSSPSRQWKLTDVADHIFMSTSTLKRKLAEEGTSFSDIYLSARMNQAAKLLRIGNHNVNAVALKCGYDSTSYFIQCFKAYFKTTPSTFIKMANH

SMILES | reduction of sipB expression [1] | reduction of sipB expression [2] | reduction of sipB expression [3] | binding of HilC to hilA promoter ([4]; 100 μM) | binding of HilC to hilA promoter ([4]; 100 μM, listed as cis-2-hexadecenoic acid) | binding of HilC to hilA promoter ([4]; 10, 25, 50 and 75 μM) | binding of HilC to hilA promoter ([4]; 10, 25, 50 and 75 μM, listed as cis-2-hexadecenoic acid) | hilA (invasion gene) expression [5] | binding of HilD to hilA promoter ([6]; 20 μM, 10 nM DNA, 150 μM protein) | binding of HilD to hilA promoter ([6]; 20 μM, 10 nM DNA, 150 μM protein, listed as cis-2-hexadecenoic acid) | binding of HilD to hilA promoter ([6]; 1, 2, 5 and 10 μM) | binding of HilD to hilA promoter ([6]; 1, 2, 5 and 10 μM, listed as cis-2-hexadecenoic acid) | hilA expression [7] | effect on HilD stability [8] | binding of RtsA to hilA promoter [9] | percentage of Salmonella expressing SPI in the gut ([10]; mice n=5/group, P<0.01 vs control) | reduction of percentage of bacteria expressing an invasion gene in the caecum ([10]; mice, 1.5 mM in drinking water, hilD UTR A25G strain)
CCCCCCCCCCCCC/C=C/C(=O)O [2-trans-hexadecenoic acid, reference compound] | 5.2 fold | 4.5 fold | 4.7 fold | – | – | – | – | – | – | – | – | – | – | – | – | – | –
CCCCCCCCCCCCC/C=C\C(=O)O [2-cis-hexadecenoic acid, (Z)-hexadec-2-enoic acid] | ~11 fold | No significant repression | No significant repression | preventing binding | prevented binding | partially inhibited binding | did so partially | reduced expression to a lesser degree | prevented the binding | completely inhibited from binding | partially inhibited binding | did so partially | continued to repress | no effect | preventing binding; also recorded: partially inhibited binding; also recorded: prevented binding; also recorded: did so partially | reduces the percentage | 2 fold
CCCCCCCCC/C=C\C(=O)O [2-cis-dodecenoic acid, (Z)-dodec-2-enoic acid] | 4.1 fold | no significant reduction | no significant reduction | – | – | – | – | reduced expression to a lesser degree | – | – | – | – | – | – | – | – | –
